Measured values as given in patent publication EP4806446A2.
Where two headings read alike, the source gives them in different places.

Conditions: ester bond, DCM

CCn1c(-c2cc(N3CCN(C)CC3)cnc2[C@H](C)OC)c2c3cc(ccc31)-c1csc(n1)C[C@H](NC(=O)OC(C)(C)C)C(=O)N1N[C@H](C(=O)OCC(C)(C)C2)C2CC1C2
ring closure, yield of all isomers (from CCn1c(-c2cc(N3CCN(C)CC3)cnc2[C@H](C)OC)c(CC(C)(C)CO)c2cc(-c3csc(C[C@H](NC(=O)OC(C)(C)C)C(=O)N4N[C@H](C(=O)O)C5CC4C5)n3)ccc21, PyBOP/DMAP, 5.8 mM, 25.0 °C, 5.0 h): 48.8%

C=C[C@@H]1CCN2N[C@@H]1C(=O)OCC(C)(C)Cc1c(-c3cc(N4CCN(C(=O)OCc5ccccc5)CC4)cnc3[C@H](C)OC)n(CC)c3ccc(cc13)-c1csc(n1)C[C@H](NC(=O)OC(C)(C)C)C2=O
ring closure, yield of all isomers (from C=C[C@@H]1CCN(C(=O)[C@H](Cc2nc(-c3ccc4c(c3)c(CC(C)(C)CO)c(-c3cc(N5CCN(C(=O)OCc6ccccc6)CC5)cnc3[C@H](C)OC)n4CC)cs2)NC(=O)OC(C)(C)C)N[C@@H]1C(=O)O, EDCI/HOBt/DIEA, 10.0 mM, 25.0 °C, 16.0 h): 36.7%

CCn1c(-c2cc(N3CCN(C(=O)OCc4ccccc4)CC3)cnc2[C@H](C)OC)c2c3cc(ccc31)-c1cccc(c1)C[C@H](NC(=O)OC(C)(C)C)C(=O)N1N[C@H](C(=O)OCC(C)(C)C2)C2CC1C2
ring closure, yield of all isomers (from CCn1c(-c2cc(N3CCN(C(=O)OCc4ccccc4)CC3)cnc2[C@H](C)OC)c(CC(C)(C)CO)c2cc(-c3cccc(C[C@H](NC(=O)OC(C)(C)C)C(=O)N4N[C@H](C(=O)O)C5CC4C5)c3)ccc21, EDCI/HOBt/DIEA, 6.0 mM, 25.0 °C, 16.0 h): 27%

CCn1c(-c2cc(N3CCN(C(=O)OCc4ccccc4)CC3)cnc2[C@H](C)OC)c2c3cc(ccc31)N1CCO[C@@H](C[C@H](NC(=O)OC(C)(C)C)C(=O)N3N[C@H](C(=O)OCC(C)(C)C2)C2CC3C2)C1
ring closure, yield of all isomers (from CCn1c(-c2cc(N3CCN(C(=O)OCc4ccccc4)CC3)cnc2[C@H](C)OC)c(CC(C)(C)CO)c2cc(N3CCO[C@@H](C[C@H](NC(=O)OC(C)(C)C)C(=O)N4N[C@H](C(=O)O)C5CC4C5)C3)ccc21, PyBOP/DMAP, 9.8 mM, 35.0 °C, 0.5 h): 16%

CCn1c(-c2cc(N3CCN(C4CC4)CC3)cnc2[C@H](C)OC)c2c3cc(ccc31)-c1nnc(o1)C[C@H](NC(=O)OCc1ccccc1)C(=O)N1N[C@H](C(=O)OCC(C)(C)C2)C2CC1C2
ring closure, yield of all isomers (from CCn1c(-c2cc(N3CCN(C4CC4)CC3)cnc2[C@H](C)OC)c(CC(C)(C)CO)c2cc(-c3nnc(C[C@H](NC(=O)OCc4ccccc4)C(=O)N4N[C@H](C(=O)O)C5CC4C5)o3)ccc21, PyBOP, DMAP, 6.64 mM, 25.0 °C, 16.0 h, 2 steps): 29%

CCn1c(-c2cccnc2[C@H](C)OC)c2c3cc(ccc31)N1CCO[C@@H](C[C@H](NC(=O)OC(C)(C)C)C(=O)N(C)NCC(=O)OCC(C)(C)C2)C1
ring closure, yield of all isomers (from CCn1c(-c2cccnc2[C@H](C)OC)c(CC(C)(C)CO)c2cc(N3CCO[C@@H](C[C@H](NC(=O)OC(C)(C)C)C(=O)N(C)NCC(=O)O)C3)ccc21, EDCI/HOBt, DIEA, 6.5 mM, 25.0 °C, 16.0 h): 44%

CCn1c(-c2cc(N3CCN(C(=O)OCc4ccccc4)CC3)cnc2[C@H](C)OC)c2c3cc(ccc31)-c1csc(n1)C[C@H](NC(=O)OC(C)(C)C)C(=O)N1N[C@@H](C(=O)OCC(C)(C)C2)C2CC1C2
ring closure, yield of all isomers (from CCn1c(-c2cc(N3CCN(C(=O)OCc4ccccc4)CC3)cnc2[C@H](C)OC)c(CC(C)(C)CO)c2cc(-c3csc(C[C@H](NC(=O)OC(C)(C)C)C(=O)N4N[C@@H](C(=O)O)C5CC4C5)n3)ccc21, EDCI/HOBt/DIEA, 5.2 mM, 35.0 °C): 49%

CCn1c(-c2cc(N3CCN(C4CC4)CC3)cnc2[C@H](C)OC)c2c3cc(ccc31)-c1csc(n1)C[C@H](NC(=O)OC(C)(C)C)C(=O)N(C)NCC(=O)OCC(C)(C)C2
ring closure, yield of all isomers (from CCn1c(-c2cc(N3CCN(C4CC4)CC3)cnc2[C@H](C)OC)c(CC(C)(C)CO)c2cc(-c3csc(C[C@H](NC(=O)OC(C)(C)C)C(=O)N(C)NCC(=O)O)n3)ccc21, PyBOP/DMAP, 5.9 mM, 0.0 °C, 1.0 h): 27%

CCn1c(-c2cccnc2[C@H](C)OC)c2c3cc(ccc31)N1CCO[C@@H](C[C@H](NC(=O)OC(C)(C)C)C(=O)N3N[C@H](C(=O)OCC(C)(C)C2)C2CC3C2)C1
ring closure, yield of all isomers (from CCn1c(-c2cccnc2[C@H](C)OC)c(CC(C)(C)CO)c2cc(N3CCO[C@@H](C[C@H](NC(=O)OC(C)(C)C)C(=O)N4N[C@H](C(=O)O)C5CC4C5)C3)ccc21, PyBOP, DMAP, 2.6 mM, 25.0 °C, 16.0 h): 96.2%

CCn1c(-c2cc(N3CCN(C)CC3)cnc2[C@H](C)OC)c2c3cc(ccc31)-c1csc(n1)C[C@H](NC(=O)OC(C)(C)C)C(=O)N(C)NCC(=O)OCC(C)(C)C2
ring closure, yield of all isomers (from CCn1c(-c2cc(N3CCN(C)CC3)cnc2[C@H](C)OC)c(CC(C)(C)CO)c2cc(-c3csc(C[C@H](NC(=O)OC(C)(C)C)C(=O)N(C)NCC(=O)O)n3)ccc21, PyBOP/DMAP, 0.81 mM, 0.0 °C, 1.0 h): 42%

CCn1c(-c2cc(N3CCN(C(=O)OCc4ccccc4)CC3)cnc2[C@H](C)OC)c2c3cc(ccc31)-c1csc(n1)C[C@H](NC(=O)OC(C)(C)C)C(=O)N(C)NCC(=O)OCC(C)(C)C2
ring closure, yield of all isomers (from CCn1c(-c2cc(N3CCN(C(=O)OCc4ccccc4)CC3)cnc2[C@H](C)OC)c(CC(C)(C)CO)c2cc(-c3csc(C[C@H](NC(=O)OC(C)(C)C)C(=O)N(C)NCC(=O)O)n3)ccc21, EDCI/HOBt/DIEA, 4.25 mM, 25.0 °C, 16.0 h): 38.2%
